Data: patent publication US6235736A, “3-anilino-2-cycloalkenone derivatives” (Nikken Chemicals Co., Ltd., priority 1997, dated 2001)

Experiments:
[1] = system: Type IV PDE; experiment: PDE IV inhibitory activity (isozyme partially purified from rat neutrophils, 3H-cAMP substrate); assay type: biochemical; conditions: rat neutrophil PDE IV, 30° C., 30 minutes, read-out: PDE IV inhibiting action IC50
Summary of the method: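 Rat neutrophil PDE IV partially purified by ion-exchange chromatography; incubated with compound in 50 mM Tris-HCl, 5 mM MgCl2 and 3H-cAMP substrate, 30 °C for 30 min, stopped by boiling. Product converted to 3H-adenosine by 5'-nucleotidase, separated by ion exchange, counted by scintillation; IC50 in M.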

[2] = system: antigen-induced bronchoconstriction in guinea-pig; experiment: Inhibitory effect on antigen-induced bronchospasm (anti-asthmatic action); assay type: in vivo, guinea-pig (Hartley male); conditions: Cavia porcellus; intravenous, 10 minutes before 0.2 mg/kg OA challenge; read-out: Action suppressing antigen induced bronchoconstriction ED50
Procedure: Hartley male guinea-pig was sensitized by intramuscular administration of 35 mg Ovalbumin (OA) at first day and fourth day. After 25 to 29 days of first sensitization, trachial canula was introduced in the guinea pig anesthetized with pentobarbital and artificial ventilation was performed. The overflow of the ventilation was measured by the Konzett Roessler method while 0.2 mg/kg OA were administered intravenously. The test compound was dissolved in polyethylene glycol 400 and intravenously administered 10 minutes before OA challenge.

[3] = system: TPA induced ear edema in mouse; experiment: TPA induced mouse ear edema assay; assay type: in vivo, mouse (male ICR); conditions: 0.1 mg applied to right ear immediately after TPA; 6 hour
Summary of the method: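 Male ICR mice (5 weeks, n = 7–8) received 2 μg TPA in acetone on the right ear, then 0.1 mg compound in THF–methanol (1:1) topically straight after. At 6 h, ear punches were weighed and % inhibition of edema was calculated.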

[4] = system: DNFB contact-type dermatitis in mouse; experiment: Allergic contact dermatitis assay (DNFB); assay type: in vivo, mouse (ICR male); conditions: applied 1 hour before and 5 hours after inducing ear edema; 24 hours
Procedure: 8 to 9 week old ICR type male mice were divided into groups of 8 to 9 each for use. The shaved skin of the ventral surface of each of the mice was applied with a 0.5% DNFB (2,4-dinitrofluorobenzene)acetone-olive oil solution (v/v=4/1) in an amount of 25 μl/day over 2 days to sensitize it. Four days after the second day of sensitization, a 0.2% DNFB acetone-olive oil solution was applied to the ear in an amount of 25 μl to induce contact-type dermatitis. After 24 hours, the thickness of the ear was measured using a dial thickness gauge and the difference with the value before inducing the edema was found. The test compound was dissolved in 25 μl of tetrahydrofuran-methanol (mixture ratio 1:1) and applied two time, that is, 1 hour before inducing the ear edema and 5 hours after it.
In Table 6, the effect of the compound was expressed by the ED50.

[5] = system: type IV PDE; conditions: background art (Kokai No. 50-157360); cited from earlier work
[6] = system: rat neutrophils; experiment: Inhibition of superoxide anion release from rat neutrophils (chemiluminescence); assay type: cell-based; conditions: Neutrophil, stimulated with 0.3 micro M A23187, read-out: Action suppressing release of superoxide anions from rat neutrophils IC50
Procedure: The release of super oxide anions was measured so as to study the inhibitory effects of the compound of the present invention on inflammatory leukocytes, that is, neutrophils.
Blood sample was collected from Wister rats anestetized with ether. It was superposed on a blood cell separation solution (Polymorphoprep 1.113, Naicomed Farm) and the neutrophils were separated by centrifugation. The neutrophils were resuspended in a Hank's balanced salt solution at a concentration of 0.5×10^4 cells/ml. 0.1 mM of lusigenin and the test substance dissolved in DMSO were added to 2 ml of the cell suspension. The chemiluminescence generated by stimulation of 0.3 maicro M calcium ionophore A23187 was measured by a chemiluminescence reader so as to evaluate the release of super oxide anions.

SMILES	IC50 [1]	ED50 [2]	% Inhibition of ear edema [3]	ED50 (allergic contact dermatitis, ear edema) [4]	specific inhibitory activity against type IV PDE (in words) [5]	IC50 [6]
COc1ccc(NC2=CC(=O)CC2)cc1OC1Cc2ccccc2C1 [Compound No. 9, 3-[3-(2-indanyloxy)-4-methoxyanilino]-2-cyclopenten-1-one]	690 nM	5.5 mg/kg	72.3%	94 μg/site	–	–
COc1ccc(C2CNC(=O)C2)cc1OC1CCCC1 (stereo not shown) [Rolipram]	–	–	–	–	specific inhibitory activity against type IV PDE	–
COc1ccc(NC2=C(C)C(=O)CC2)cc1OC1Cc2ccccc2C1 [Compound No. 10, 3-[3-(2-indanyloxy)-4-methoxyanilino]-2-methyl-2-cyclopenten-1-one]	140 nM	0.86 mg/kg	–	–	–	–
COc1ccc(NC2=CC(=O)NCC2)cc1OC1CCCC1 [Compound No. 21, 4-(3-cyclopentyloxy-4-methoxyanilino)-1,2,5,6-tetrahydropyridin-2-one]	1100 nM	1 mg/kg	–	–	–	410 nM
COc1ccc(NC2=C(C)C(=O)CC2)cc1OC1CCCCC1 [Compound No. 14, 3-(3-cyclohexyloxy-4-methoxyanilino)-2-methyl-2-cyclopenten-1-one]	2400 nM	–	73.4%	16 μg/site	–	–
COc1ccc(NC2=CC(=O)NCC2)cc1O[C@H]1C[C@@H]2CC[C@H]1C2 (relative stereo) [Compound No. 23]	2400 nM	–	73.0%	–	–	190 nM
COc1ccc(NC2=CC(=O)CC2)cc1OC1CCCC1 [Compound No. 1, 3-(3-cyclopentyloxy-4-methoxyanilino)-2-cyclopenten-1-one]	1600 nM	1.4 mg/kg	68.2%	–	–	120 nM
COc1ccc(NC2=CC(=O)N(Cc3ccccc3)CC2)cc1OC1CCCC1 [Compound No. 22, 1-benzyl-4-(3-cyclopentyloxy-4-methoxyanilino)-1,2,5,6-tetrahydropyridin-2-one]	24000 nM	–	76.8%	32 μg/site	–	3300 nM
CCC1=C(Nc2ccc(OC)c(OC3Cc4ccccc4C3)c2)CCC1=O [Compound No. 32, 2-ethyl-3-[3-(2-indanyloxy)-4-methoxyanilino]-2-cyclopenten-1-one]	50 nM	7.34 mg/kg	75.5%	–	–	–
COc1ccc(NC2=CC(=O)CC2)cc1O[C@@H]1C[C@H]2CC[C@@H]1C2 (racemic) [Compound No. 8, 3-[3-[(1RS,2RS,4SR)-bicyclo[2.2. 1]hept-2-yloxy]-4-methoxyanilino]-2-cyclopenten-1-one]	1300 nM	3 mg/kg	73.1%	–	–	140 nM
